Drawing on article PMC9958940 (Viruses, 2023), this text covers IC50 for one molecule.

One test concerns SARS-CoV-2 E406W variant. The format is cell-based. The settings on record: read-out: SARS-CoV-2 RNA IC50, E406W.
For test [1], the system named is SARS-CoV-2 R10/E796G C799F. The format is cell-based. The settings on record: read-out: SARS-CoV-2 RNA IC50, R10/E796G C799F.

pIC50: −log10 of the molar value. Starred links: 1 amine or outer side, 2 acyl side, 3 side chain; linkers in the order of their positions; H or OH if unused. Positions of bridges follow the written chain, without caps; N, C: chain ends. Non-standard residues stand in square brackets, D forms with d. Residues, ends and D or L forms follow the SMILES beside them. *: point of attachment. hTyr(3S-OH,4S-OH,3'-OSO3H) = N[C@H](C(=O)O)[C@H](O)[C@@H](O)c1ccc(O)c(OS(=O)(=O)O)c1; Orn(4R-OH,5R-OH) = O=C([C@H](C[C@@H](O)[C@@H](O)N[*:3])N[*:1])[*:2]; Pro(3S-OH,4S-Me) = C[C@H]1CN[C@H](C(=O)O)[C@H]1O; X1 = CCCCCOc1ccc(-c2cc(-c3ccc(C(=O)*)cc3)no2)cc1; Gln(3R-OH) = NC(=O)C[C@@H](O)[C@H](N)C(=O)O; Hyp = O=C(O)[C@@H]1C[C@@H](O)CN1

Turning to `CCCCCOc1ccc(-c2cc(-c3ccc(C(=O)N[C@H]4C[C@@H](O)[C@@H](O)NC(=O)[C@@H]5[C@@H](O)[C@@H](C)CN5C(=O)[C@H]([C@H](O)CC(N)=O)NC(=O)[C@H]([C@H](O)[C@@H](O)c5ccc(O)c(OS(=O)(=O)O)c5)NC(=O)[C@@H]5C[C@@H](O)CN5C(=O)[C@H]([C@@H](C)O)NC4=O)cc3)no2)cc1` [Micafungin] (X1-[Orn(4R-OH,5R-OH)]T[Hyp][hTyr(3S-OH,4S-OH,3'-OSO3H)][Gln(3R-OH)][Pro(3S-OH,4S-Me)]; lactam 1-C), the pIC50 is 4.66 with SARS-CoV-2 E406W variant and 4.50 in test [1].
